From US8877681B2, “Use of specific alcohol alkoxylates as an adjuvant for agrotechnical applications” (BASF SE, priority 2002, dated 2014) come the findings set out here.

SMILES strings stand for the structures.

Test [1] has as its system white goosefoot (Chenepodium album; CHEAL). Put plainly: Greenhouse herbicidal efficacy test, tank mix of herbicide and adjuvant, post-emergence spray. The test is classed as in vivo. As to conditions: 0% no damage, 100% complete damage. How it is done: (§1) The alkoxylates were applied by the tank mix method together with Basagran (480 g/l bentazone) or BAS 635 H (71.4% by weight of tritosulfuron). […] The herbicidal effect was assessed in a greenhouse experiment. The test plant used was white goosefoot (Chenepodium album; CHEAL) and the common morningglory (Pharbitis album; PHAAL).
(§2) The plants were sown directly or pricked out at a rate of 3-15 plants per pot. When the active ingredient was applied, the plants were 5-16 cm in height. The test containers used were plastic pots containing loamy sand and approximately 3% humus as substrate. The surfactants were applied by the tank mix method by spray application post-emergence in an automated spray cabinet with a water application rate of 400 liters per hectare. The experimental period was 6 days to 4 weeks. Evaluation was carried out using a scale of from 0% to 100%. 0% means no damage, 100% means complete damage.

Test [2] relates to common morningglory (Pharbitis album; PHAAL). Described as above. The test is classed as in vivo. As to conditions: Tritosulfuron (BAS 635 H) 0.250 kg/ha as printed in table + adjuvant 0.125 kg/ha (Comparison 0.250 kg/ha), 0% no damage, 100% complete damage. How it is done: as §1, §2

Take `CC(C)N1C(=O)c2ccccc2NS1(=O)=O` [Bentazone, bentazone]: the “CHEAL herbicidal effect (damage, scale 0% to 100%)” value in test [1] (Bentazone (Basagran) 0.250 kg/ha + adjuvant 0.125 kg/ha (Comparison 0.250 kg/ha), 400 l/ha water) turned out to be 23%.

Turning to `COc1nc(NC(=O)NS(=O)(=O)c2ccccc2C(F)(F)F)nc(C(F)(F)F)n1` [Tritosulfuron, tritosulfuron], the “CHEAL herbicidal effect (damage, scale 0% to 100%)” value in test [1] (Tritosulfuron (BAS 635 H) 0.250 kg/ha as printed in table + adjuvant 0.125 kg/ha (Comparison 0.250 kg/ha)) was 35%. The “PHAAL herbicidal effect (damage, scale 0% to 100%)” value in test [2] was found to be 48%.
